Test results published in patent US11136301B2, “Broad spectrum antiviral compounds and uses thereof” (The Regents Of The University Of California, priority 2015, dated 2021).
Where two headings read alike, the source gives them in different places.

Key:
[1] = test system: wild-type HIV-1 (HIV-1LAI) in H9 cells (non-permissive); test: microbe, parasite or virus in culture; format: cell-based
[2] = test system: wild-type HIV-1 (HIV-1LAI) in MT-4 cells (permissive); test: Antiviral activity assay: wild-type HIV-1 in permissive MT4 cells, reverse transcriptase activity in culture supernatants; format: cell-based
[3] = Human immunodeficiency virus 1, H9, read-out: Antiviral activity (IC50 μM) H9, Table 2, wild-type HIV-1, non-permissive H9 cells
[4] = Human immunodeficiency virus 1, H9, read-out: Antiviral activity (IC50 μM) H9 Cells, Table 4, wild-type HIV-1, non-permissive H9 cells
[5] = Human immunodeficiency virus 1, H9, read-out: Antiviral activity (IC50 μM) H9 Cells, Table 7, wild-type HIV-1, non-permissive H9 cells
[6] = Human immunodeficiency virus 1, H9, read-out: Antiviral activity (IC50 μM) H9 cells, Table 5, wild-type HIV-1, non-permissive H9 cells
[7] = Human immunodeficiency virus 1, H9, read-out: Antiviral activity (IC50 μM) H9 cells, Table 8, wild-type HIV-1, non-permissive H9 cells
[8] = Human immunodeficiency virus 1, H9, read-out: Antiviral activity (IC50 μM) H9 cells, wild-type HIV-1 (HIV-1LAI), H9 cells (non-permissive), RT activity in culture supernatants, compounds 1 to 50 μM
[9] = Human immunodeficiency virus 1, MT4, Table 2, wild-type HIV-1, permissive MT4 cells, read-out: Antiviral activity (IC50 μM) MT4
[10] = Human immunodeficiency virus 1, MT4, wild-type HIV-1 (HIV-1LAI), MT4 cells (permissive), RT activity in culture supernatants, compounds 1 to 50 μM, read-out: Antiviral activity (IC50 μM) MT4 cells
[11] = Human immunodeficiency virus 1, H9, read-out: IC50, anti-HIV-1 activity, non-permissive H9 cells

Structure (SMILES) | IC50 [1, 3] [µM] | IC50 [1, 4] [µM] | IC50 [1, 5] [µM] | IC50 [1, 6] [µM] | IC50 [1, 7] [µM] | IC50 [1, 8] [µM] | IC50 [2, 9] [µM] | IC50 [2, 10] [µM] | IC50 [1, 11] [µM]
COc1ccccc1-n1cc(-c2ccccc2S(=O)(=O)c2ccc([N+](=O)[O-])cc2)nn1 [Compound 2ay, 1-(2-Methoxyphenyl)-4-(2-((4-nitrophenyl)sulfonyl)phenyl)-1H-1,2,3-triazole] | 13.8 | 13.8 | 13.8 | 13.8 | 13.8 | 13.8 | > 50 | > 50 | 
COC(=O)c1ccc(Sc2ccccc2-c2cn(-c3ccccc3OC)nn2)cc1 [Compound 2bx, Methyl 4-((2-(1-(2-methoxyphenyl)-1H-1,2,3-triazol-4-yl)phenyl)thio)benzoate] | > 50 |  |  | > 50 | > 50 | > 50 | > 50 | > 50 | 
COC(=O)c1ccc(S(=O)(=O)c2ccccc2-c2cn(-c3ccccc3OC)nn2)cc1 [Compound 2by, Methyl 4-((2-(1-(2-methoxyphenyl)-1H-1,2,3-triazol-4-yl)phenyl)sulfonyl)benzoate] | > 50 |  |  | > 50 | > 50 | > 50 | > 50 | > 50 | 
COc1ccc(S(=O)(=O)c2ccccc2-c2cn(-c3ccccc3OC)nn2)cc1 [Compound 2cy, 1-(2-Methoxyphenyl)-4-(2-((4-methoxyphenyl)sulfonyl)phenyl)-1H-1,2,3-triazole] | 4.3 | 4.3 | 4.3 | 4.3 | 4.3 | 4.3 | > 50 | > 50 | 
COc1ccccc1-n1cc(-c2ccccc2S(=O)(=O)c2ccc(C(F)(F)F)cc2)nn1 [Compound 2dy, 1-(2-Methoxyphenyl)-4-(2-((4-(trifluoromethyl)phenyl)sulfonyl)phenyl)-1H-1,2,3-triazole] | 4.8 | 4.8 | 4.8 | 4.8 | 4.8 | 4.8 | > 50 | > 50 | 
COc1ccccc1-n1cc(-c2ccccc2Sc2ccc(N)cc2)nn1 [Compound 2ex, 4-((2-(1-(2-Methoxyphenyl)-1H-1,2,3-triazol-4-yl)phenyl)thio)aniline] | 2.5 | 7.5 | 2.5 | 2.5 | 2.5 | 2.5 | > 50 | > 50 | 1 to 3
COc1ccccc1-n1cc(-c2ccccc2Sc2ccc(C(=O)O)cc2)nn1 [Compound 2fx, 4-((2-(1-(2-Methoxyphenyl)-1H-1,2,3-triazol-4-yl)phenyl)thio)benzoic Acid] | 1 | 1 | 1 | 1 | 1 | 1 | > 50 | > 50 | 1 to 3
COc1ccccc1-n1cc(-c2ccccc2S(=O)(=O)c2ccc(C(=O)O)cc2)nn1 [Compound 2fy, 4-((2-(1-(2-Methoxyphenyl)-1H-1,2,3-triazol-4-yl)phenyl)sulfonyl)benzoic acid] | 8.2 | 8.2 | 8.2 | 8.2 | 8.2 | 8.2 | > 50 | > 50 | 
COc1cccc(-n2cc(-c3ccccc3Sc3ccc([N+](=O)[O-])cc3)nn2)c1OC [Compound 3ax, 1-(2,3-Dimethoxyphenyl)-4-(2-((4-nitrophenyl)thio)phenyl)-1H-1,2,3-triazole] | 1.1 | 1.1 | 1.1 | 1.1 | 1.1 | 1.1 | > 50 | > 50 | 1 to 3
COc1cccc(-n2cc(-c3ccccc3S(=O)(=O)c3ccc([N+](=O)[O-])cc3)nn2)c1OC [Compound 3ay, 1-(2,3-Dimethoxyphenyl)-4-(2-((4-nitrophenyl)sulfonyl)phenyl)-1H-1,2,3-triazole] | > 50 |  |  | > 50 | > 50 | > 50 | > 50 | > 50 | 
COC(=O)c1ccc(Sc2ccccc2-c2cn(-c3cccc(OC)c3OC)nn2)cc1 [Compound 3bx, Methyl 4-((2-(1-(2,3-dimethoxyphenyl)-1H-1,2,3-triazol-4-yl)phenyl)thio)benzoate] | 8 | 8 | 8 | 8 | 8 | 8 | > 50 | > 50 | 
COC(=O)c1ccc(S(=O)(=O)c2ccccc2-c2cn(-c3cccc(OC)c3OC)nn2)cc1 [Compound 3by, Methyl 4-((2-(1-(2,3-dimethoxyphenyl)-1H-1,2,3-triazol-4-yl)phenyl)sulfonyl)benzoate] | 4.7 | 4.7 | 4.7 | 4.7 | 4.7 | 4.7 | > 50 | > 50 | 
COc1ccc(S(=O)(=O)c2ccccc2-c2cn(-c3cccc(OC)c3OC)nn2)cc1 [Compound 3cy, 1-(2,3-Dimethoxyphenyl)-4-(2-((4-methoxyphenyl)sulfonyl)phenyl)-1H-1,2,3-triazole] | > 50 |  |  | > 50 | > 50 | > 50 | > 50 | > 50 | 
COc1cccc(-n2cc(-c3ccccc3Sc3ccc(C(F)(F)F)cc3)nn2)c1OC [Compound 3dx, 1-(2,3-Dimethoxyphenyl)-4-(2-((4-(trifluoromethyl)phenyl)thio)phenyl)-1H-1,2,3-triazole] | 1.9 | 1.9 | 1.9 | 1.9 | 1.9 | 1.9 | > 50 | > 50 | 1 to 3
COc1cccc(-n2cc(-c3ccccc3S(=O)(=O)c3ccc(C(F)(F)F)cc3)nn2)c1OC [Compound 3dy, 1-(2,3-Dimethoxyphenyl)-4-(2-((4-(trifluoromethyl)phenyl)sulfonyl)phenyl)-1H-1,2,3-triazole] | > 50 |  |  | > 50 | > 50 | > 50 | > 50 | > 50 | 
COc1cccc(-n2cc(-c3ccccc3S(=O)(=O)c3ccc(N)cc3)nn2)c1OC [Compound 3ey, 4-((2-(1-(2,3-Dimethoxyphenyl)-1H-1,2,3-triazol-4-yl)phenyl)sulfonyl)aniline] | 12.4 | 12.4 | 12.4 | 12.4 | 12.4 | 12.4 | > 50 | > 50 | 
COc1cccc(-n2cc(-c3ccccc3Sc3ccc(C(=O)O)cc3)nn2)c1OC [Compound 3fx, 4-((2-(1-(2,3-Dimethoxyphenyl)-1H-1,2,3-triazol-4-yl)phenyl)thio)benzoic Acid] | 2.8 | 2.8 | 2.8 | 2.8 | 2.8 | 2.8 | > 50 | > 50 | 1 to 3
COc1cccc(-n2cc(-c3ccccc3S(=O)(=O)c3ccc(C(=O)O)cc3)nn2)c1OC [Compound 3fy, 4-((2-(1-(2,3-Dimethoxyphenyl)-1H-1,2,3-triazol-4-yl)phenyl)sulfonyl)benzoic Acid] | 1.4 | 1.4 | 1.4 | 1.4 | 1.4 | 1.4 | > 50 | > 50 | 1 to 3
COc1ccc(-n2cc(-c3ccccc3S(=O)(=O)c3ccc([N+](=O)[O-])cc3)nn2)c(OC)c1 [Compound 4ay, 1-(2,4-Dimethoxyphenyl)-4-(2-((4-nitrophenyl)sulfonyl)phenyl)-1H-1,2,3-triazole] | > 50 |  |  | > 50 | > 50 | > 50 | > 50 | > 50 | 
COc1ccc(S(=O)(=O)c2ccccc2-c2cn(-c3ccc(OC)cc3OC)nn2)cc1 [Compound 4cy, 1-(2,4-Dimethoxyphenyl)-4-(2-((4-methoxyphenyl)sulfonyl)phenyl)-1H-1,2,3-triazole] | > 50 |  |  | > 50 | > 50 | > 50 | > 50 | > 50 | 
COc1ccc(-n2cc(-c3ccccc3S(=O)(=O)c3ccc(C(F)(F)F)cc3)nn2)c(OC)c1 [Compound 4dy, 1-(2,4-Dimethoxyphenyl)-4-(2-((4-(trifluoromethyl)phenyl)sulfonyl)phenyl)-1H-1,2,3-triazole] | 12 | 12 | 12 | 12 | 12 | 12 | > 50 | > 50 | 
COc1ccc(-n2cc(-c3ccccc3Sc3ccc(C(=O)O)cc3)nn2)c(OC)c1 [Compound 4fx, 4-((2-(1-(2,4-Dimethoxyphenyl)-1H-1,2,3-triazol-4-yl)phenyl)thio)benzoic Acid] | 7.1 | 7.1 | 7.1 | 7.1 | 7.1 | 7.1 | > 50 | > 50 | 
